The source of these data is patent publication US20070059299A1, “S-adenosyl methionine decarboxylase inhibition for the treatment of a herpes simplex virus infection” (Institut National de la Sante et de la Recherche Medicale …, priority 2002, published 2007).

For one data set, the system named is HSV. Nature of the data set: HSV replication in cellulo. The format is cell-based. Conditions: read-out: HSV inhibition in cellulo IC50. As for the experimental part: (§1) Three HSV 1 reference strains were tested : SC16 (acyclovir-susceptible reference strain; (Hill et al., 1975)), DM21 (acyclovir-resistant reference strain derived from SC16; (Efstathiou et al., 1989)) and TP 2.5 (foscarnet-resistant reference strain derived from SC16; (Larder and Darby, 1985)). Antiviral assays were performed in duplicate on HEp-2 cells seeded in 96 wells microplates. Dilutions of virus and drugs were prepared in E-MEM without FCS. Cells were first treated for 24 hours with MGBG using a series of 6 twofold serial dilutions from 12.5 to 400 μM. Infection was then achieved with 5 tenfold dilutions of cell-associated virus (10^−1 to 10^−5). Each dilution was incubated with a series of 6 concentrations of each antiviral drug (from 12.5 to 400 μM in twofold dilutions for MGBG, from 0.16 to 500 μM in fivefold dilutions for acyclovir and from 31 to 1000 μM in twofold dilutions for foscarnet). […] After incubation at 36° C. with 5% CO2 for 24 hours post-infection, medium was replaced with freshly prepared dilutions of MGBG. Viral multiplication was checked 24 hours afterwards by an ELISA (Morfin et al., 1999), using a rabbit monoclonal anti-HSV 1 antibody (BO 114, Dako) and a protein A peroxidase-conjugated (BioRad). The substrate, 2,2′-azino-di(3-ethyl-benzthiazoline) sulfonic acid (ABTS) diluted in ABTS buffer (Boehringer, Mannheim), was added to each well. After 30 min at room temperature, the plates were briefly agitated and optical densities were read at 405 nm with a multichannel spectrophotomoter (Titertek-Multiskan). Optical density values were used with the Biolise program (Life Sciences International) to calculate the concentration of the drug causing a 50% inhibition of viral replication (IC50) by logistic regression analysis.

The subject of data set [1] is HSV-1 clinical acyclovir or foscarnet resistant isolates.
The subject of data set [2] is HSV-1 proteins, mRNA and DNA. Nature of the data set: Levels of viral proteins (Western blot), mRNA and DNA (slot blot) in infected HEp2 cells. The class given is cell-based. In general terms: A western blot detects proteins with antibodies after separation by electrophoresis.
Procedure: Total RNA and DNA from control mock-infected and infected HEp2 cells were purified using Qiagen RNA/DNA kit. RNA were submitted to DNAse/RNAse free digestion (1.5 unit/μg RNA) and DNA were submitted to RNAse A digestion (10 units/μg). Quantitation of SAMDC mRNA, of viral mRNAs and viral DNA present in each sample was determined by slot blot analysis using the 1250 bp PstI/PvuII fragment of pSAMr1 plasmid (Pajunen et al., 1988). The 746 bp SalI-EcoNI fragment of pSG28 and the 1308 bp MluI fragment of pSG124 plasmids (Goldin et al., 1981) were labelled with [^32P] and used as probes to detect the immediate early ICP27 and the early UL42 mRNAs respectively. Us11 late mRNA was detected with [^32P]-labelled probe composed of the 230 bp XhoI fragment of pHSV-Us12 plasmid (Diaz et al., 1996). Viral DNA was detected using the ICP27 specific DNA probe.
Mock-infected and HSV-1-infected HEp2 cells were washed three times with ice cold phosphate-buffered saline (PBS) (130 mM NaCl, 4 mM Na2HPO4.2H2O, 1.5 mM KH2PO4), scrapped into PBS, and collected by centrifugation at 500×g. Cells were resuspended in Laemmli buffer (Laemmli, 1970). Proteins were resolved by polyacrylamide gel electrophoresis and transferred by electroblotting onto a polyvinylidene difluoride membrane (Immobilon-P; Millipore). Viral proteins were analysed by Western blots (10 μg aliquots) using a 50 fold dilution of either a rabbit polyclonal anti-ICP27 antibody, or a rabbit polyclonal anti-Us11 antibody (Diaz et al., 1993), or a mouse monoclonal anti-UL42 antibody diluted 50 fold.
Cells were pre-treated with 10 to 200 μM of MGBG, then infected with HSV-1 in the presence of the same concentrations of MGBG. Proteins, RNA and DNA were extracted from cells infected for 24 h. Viral proteins were detected by Western blot using specific antibodies, whereas viral mRNA and DNA levels were assayed by slot blot analysis.
A further data set has as its system HEp2 cells. Nature of the data set: Estimation of growth and viability of uninfected HEp2 cells (trypan blue counting). The format is cell-based. As for the experimental part: Uninfected HEp2 cells were grown in the absence (control) and the presence of 10 to 500 μM of MGBG for 24 h, 30 h and 48 h. Every 24 h, medium was replaced with fresh medium containing the same concentration of MGBG. At the time of harvesting, culture medium was collected from wells of untreated control cells and treated cells. Then cells from the monolayers were gently trypsinized and added to the corresponding previous cell culture medium. Total cells were collected by gentle centrifugation at 500×g and were resuspended in PBS containing 0.2% trypan blue. For each experiment, total cells, living cells and dead cells were counted.
The effect of MGBG on cell growth and viability was investigated. HEp2 cells were incubated in FCS free medium, in the presence of 10 μM to 500 μM of MGBG for 24 h, 30 h and 48 h. After harvesting, total cells, living cells and dead cells were counted.

Data set [3] relates to acyclovir-susceptible reference strain SC16. As to the kind of experiment: Antiviral susceptibility testing by ELISA on HEp-2 cells, strain SC16. The format is cell-based, HSV 1. Conditions: HEp-2, read-out: Susceptibility of strain SC16 (concentration causing 50% inhibition of viral replication, IC50), median. As for the experimental part: as §1
The capacity of MGBG to preclude infection of three HSV-1 acyclovir and/or foscarnet resistant strains was tested. […] The ED values were determined.
For orientation: An ELISA detects its analyte on a solid surface through an enzyme-linked reagent.

Where only a bound is given, the exact number is not on record here.

With `CC(C=NNC(=N)N)=NNC(=N)N` [MGBG, methylglyoxal bis(guanylhydrazone)], the IC50 in the data set with HSV is 44 µM; in data set [3] it was 103 µM. Besides, the “replication of HSV-1 clinical acyclovir or foscarnet resistant isolates” value in data set [1] was “inhibited replication”. Moreover, in data set [2] (6 h pre-treatment with 100 μM MGBG, MGBG alone, 24 h p.i.), the viral replication result is recorded as “totally inhibited”. The “viral DNA level, viral mRNA and proteins” value in data set [2] (cells pre-treated with 10 to 200 μM MGBG, infected 24 h, dose dependant) is on record as “significantly decreased”. Further, the “percentage of dead cells of total cells” value is on record as 10% in the data set with HEp2 cells (25 μM MGBG, 48 h); 9% with HEp2 cells (500 μM MGBG, 24 h); 24% in the data set with HEp2 cells (500 μM MGBG, 30 h); at most 5% with HEp2 cells (less than 500 μM MGBG for 24 h and 30 h, less than 25 μM MGBG for 48 h). For the same compound, the cell growth result with HEp2 cells (500 μM MGBG, FCS free) is “did not grow anymore”. Further, the “growth rate of cells compared to control cells grown without MGBG” value with HEp2 cells (24 h and 30 h, less than 200 μM MGBG, FCS free) was “no drastic difference”.
